This is an account of results in US9758502B2, “Dihydropyrone compounds and herbicides comprising the same” (SUMITOMO CHEMICAL COMPANY, LIMITED, priority 2012, dated 2017).

The assay concerns Echinochloa crus-galli. The experiment in a line: Test 1-1 Post-emergence Treatment Test. It is filed as in vivo. The conditions noted are these: sprayed on whole plants at 1-2 leaf stages, treatment amount 1,000 g/10,000 m^2, after 20 days of the treatment, greenhouse. The protocol: Here an efficacy for controlling weeds on the present compound was visually observed and evaluated in 11 criteria of 0 to 10 (0 represents no action, 10 represents complete death and the intermediate efficacy were evaluated in 1 to 9 criteria).
Commercial soil for propagation was put in a pot measuring 8 cm in diameter and 6.5 cm in height, and in the pot, seeds of Echinochloa crus-galli were sown, and then covered with soil of about 0.5 cm thickness and the plants were grown in a greenhouse. When the plants were grown to 1-2 leaf stages, a predetermined amount of a chemical diluted solution containing a compound (1-1) was uniformly spayed on the whole plants. Here the chemical diluted solution was prepared by dissolving a predetermined amount of the compound (1-1) in dimethylformamide solution containing 2% of Tween 20 (polyoxyetylene sorbitan fatty acid ester) (manufactured by MP Biomedicals Inc.) and then diluting the solution with deionized water. After spraying, plants were grown in a greenhouse and after 20 days of the treatment, the efficacy for Echinochloa crus-galli was observed and the controlling effect was evaluated.
Similarly, the present compounds (1-2) to (1-11) and (1-13) were also tested.

Turning to `CCc1cc(C)cc(CC)c1C1=C(O)CC(C(C)CS(=O)(=O)c2ccc(C(F)(F)F)cn2)OC1=O` (stereo not shown) [(1-13)], the “efficacy for controlling weeds (visually observed, 11 criteria of 0 to 10)” value is listed as at least 9.
